Reference: patent publication US20040110678A1, “Novel drug delivery system” (priority 2001, published 2004)
≈ marks a conversion by molar mass, not a printed value. Where two headings read alike, the source gives them in different places. One block for each compound: values may come before it. Where a SMILES comes first, the peptide text is derived from it. The star is where a group is joined. Palmitoyl = CCCCCCCCCCCCCCCC(=O)*; Myristoyl = CCCCCCCCCCCCCC(=O)*

Key:
[1] = test system: Staphylococcus aureus NCTC Oxford; experiment: microbe, parasite or virus in culture; type: cell-based; details: for MIC: read-out: MIC S. aureus
Procedure: (§1) Staphylococcus aureus NCTC Oxford and Escherichia coli 0111-NCTC 8007 strains were obtained from the National Collection of Type Cultures, Colindale, UK MIC for each sample was determined in 96 well plates. The above sample in PBS was serially diluted in microtitre wells with media, RPMI-1640 to give concentrations from 2 mg/ml to 0.00375 mg/ml or from 1 mg/ml to 0.00375 mg/ml or from 0.5 mg/ml to 0.00375 mg/ml of RH01 in a final volume of 100 μl. Bacteria were incubated at 37° C. overnight in standard media to give approximately 10^8 bacteria/ml and 10 μl of this was added to each well. The plates were incubated at 37° C. overnight, and bacterial growth determined by formation of a pellet.
(§2) Staphylococcus aureus NCTC Oxford and Escherichia coli 0111-NCTC 8007 strains were obtained from the National Collection of Type Cultures, Colindale, UK. The MIC for each sample was determined in 96 well plates. The RH01 in PBS (see above) was serially diluted in microtitre wells with media (RPMI-1640) to give final concentrations of 2 mg/ml to 0.00375 mg/ml of RH01 in a final volume of 100 μl. Bacteria were incubated at 37° C. overnight in standard media to give approximately 10^8 bacteria/ml and 10 μl of this was added to each well. The plates were incubated at 37° C. overnight, and bacterial growth determined by formation of a pellet.

HSAff = molecular target: T1, HSAff (Homo sapiens, UniProt P02768); experiment: Displacement of albumin-bound diazepam from HSAff-diazepam (1:1) monitored by induced CD; type: binding
T1 construct: purchased Sigma-Aldrich Company Ltd catalogue number not given; lot 32H9300
Procedure: Diazepam (0.088 mg) was dissolved by sonication for 30 mins in distilled water (0.687 ml). Sodium palmitate (0.872 mg) was dissolved in water pH 8.8 (0.698 ml) by sonicating for 5 mins. […] The CD spectrum of the mixture was then recorded. Sodium palmitate (51 μl) was added to the cell and the mixture was gently mixed by rotating the cell several times. The CD spectrum of the mixture was recorded. This process was repeated twice over, each time the CD spectrum was recorded. The cell was then washed thoroughly with distilled water and ethanol. Distilled water (2.705 ml) was then placed in the 5 cm cell and CD spectrum recorded.
CD spectra were recorded with nitrogen flushed JASCO spectropolarimeter J600 using 4 s time constant, 10 nm/min scan speed and a spectral bandwidth of 2 nm. The induced CD spectra of bound diazepam were obtained by subtracting the spectrum of albumin from that of the HSA-diazepam mixture. The spectra were reported as Δε=εL−εR(M^−1cm^−1).
Diazepam and medium chain fatty acids are known to bind to albumin site II as discussed by T Peters, All about albumin, Academic Press, 1999, p116. The fatty acid molecules are devoid of any CD signal. […] In here, diazepam is used as a marker to show the binding of fatty acids and fatty acid containing molecules to albumin. […] Palmitic acid binds to at least five long chain fatty acid binding sites of which one is closely located to albumin site II as reported by Curry et al. (1998, Nature Structural Biology, 5, 827-835).

Pronase® = type: in vitro ADME
Procedure: HSA fatty acid free (2.359 mg) was dissolved in distilled water (3.93 ml) to give concentration 0.60 mg/ml. Pronase® (0.363 mg) was dissolved in distilled water (0.605 ml) to give a concentration 0.60 mg/ml.
HSA fatty acid free solution (0.2 ml) was placed in a 0.05 cm cell and the circular dichroism spectrum (CD) was recorded. The cell was then thoroughly washed with distilled water and ethanol. HSA fatty acid free solution (2.7 ml) was placed in a glass vial. Pronase® solution (27 μl) was added to HSA fatty acid free solution in the glass vial. The mixture was mixed gently and 200 μl was transferred to 0.05 cm cell. The cell was then incubated at 37° C. and CD spectra recorded at various incubation time intervals.
CD spectra were recorded with nitrogen flushed JASCO spectropolarimeters J600 4s time constant, 10 nm/min scan speed and a spectral bandwidth of 2 nm. […]
HSA fatty acid free solution (275 μl) was placed in a glass vial. […] Mixture (200 μl) was transferred into a 0.05 cm cell and CD spectrum was recorded. […] The cell was then incubated at 37° C. and CD spectra recorded at various incubation time intervals.
HSA with fatty acid solution (275 μl) was placed in a glass vial. […] Mixture (200 μl) was transferred into a 0.05 cm cell and CD spectrum was recorded. […] The cell was then incubated at 37° C. and CD spectra recorded at various incubation time intervals. […]

[2] = test system: Escherichia coli 0111-NCTC 8007; type: cell-based; details: for Minimum Inhibitory Concentration E. coli: NCTC 8007
Procedure: as §1, §2

BSAff = molecular target: T2, BSAff (Bos taurus, UniProt P02769); experiment: Diazepam binding to fatty acid free bovine serum albumin by induced CD; details: fatty acid 0M/M
T2 construct: Bovine serum albumin essentially fatty acid free; purchased Sigma-Aldrich Company Ltd catalogue number not given; lot 100K7415
Procedure: BSAff (1.914 mg) was dissolved in distilled water (3.19 ml) to give concentration of 0.6 mg/ml. Diazepam (0.422 mg) was dissolved by sonication for 30 mins in distilled water (3.297 ml) to give a concentration of 0.128 mg/ml. BSAff solution (1.05 ml) was transferred to 2 cm cell and CD spectra was recorded. Diazepam (22 μl) was added to the BSAff in the 2 cm cell and the mixture was gently mixed by rotating the cell several times. The CD spectrum of the mixture was then recorded. The cell was then washed thoroughly with distilled water and ethanol. Distilled water (1.10 ml) was then placed in the 2 cm cell and CD spectrum recorded. CD parameters are as in example 1.

[3] = Staphylococcus aureus, 0.5 h, Table 2, peptide incubation time in mixture 30 min 25° C.
[4] = Staphylococcus aureus, Table 2, peptide incubation time in mixture 2 h 37° C.

T1 sequence (P02768 25-609): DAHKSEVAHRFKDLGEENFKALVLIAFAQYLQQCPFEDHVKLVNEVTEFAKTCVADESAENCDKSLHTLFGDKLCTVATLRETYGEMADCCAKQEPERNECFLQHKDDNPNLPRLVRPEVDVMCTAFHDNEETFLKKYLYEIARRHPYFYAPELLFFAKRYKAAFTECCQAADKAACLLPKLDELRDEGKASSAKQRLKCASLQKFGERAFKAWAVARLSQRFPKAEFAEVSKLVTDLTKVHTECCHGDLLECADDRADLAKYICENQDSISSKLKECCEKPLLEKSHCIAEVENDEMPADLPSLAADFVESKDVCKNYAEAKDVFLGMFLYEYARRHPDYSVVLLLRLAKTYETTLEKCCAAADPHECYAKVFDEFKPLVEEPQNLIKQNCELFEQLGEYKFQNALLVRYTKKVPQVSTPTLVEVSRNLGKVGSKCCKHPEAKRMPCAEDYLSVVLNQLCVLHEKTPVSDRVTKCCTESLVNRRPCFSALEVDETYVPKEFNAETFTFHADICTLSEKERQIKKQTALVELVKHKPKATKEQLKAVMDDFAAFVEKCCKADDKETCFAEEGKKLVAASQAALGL
T2 sequence (P02769 25-607): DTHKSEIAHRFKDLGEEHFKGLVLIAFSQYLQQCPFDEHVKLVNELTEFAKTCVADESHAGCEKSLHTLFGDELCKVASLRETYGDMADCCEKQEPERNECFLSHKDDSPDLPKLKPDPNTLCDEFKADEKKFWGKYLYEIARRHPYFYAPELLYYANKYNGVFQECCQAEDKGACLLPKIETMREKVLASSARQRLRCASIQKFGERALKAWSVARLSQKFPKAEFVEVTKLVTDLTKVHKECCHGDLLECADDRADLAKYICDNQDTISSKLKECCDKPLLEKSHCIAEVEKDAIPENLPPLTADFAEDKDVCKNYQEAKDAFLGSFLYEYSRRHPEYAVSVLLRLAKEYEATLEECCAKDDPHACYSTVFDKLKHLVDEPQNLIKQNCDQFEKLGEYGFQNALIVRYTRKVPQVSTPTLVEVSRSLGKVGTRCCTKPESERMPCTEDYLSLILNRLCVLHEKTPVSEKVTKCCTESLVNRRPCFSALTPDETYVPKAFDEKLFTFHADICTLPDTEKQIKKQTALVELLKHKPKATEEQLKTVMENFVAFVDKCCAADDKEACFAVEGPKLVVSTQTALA

- MIC [1, 3]: > 800 µM
- MIC [1, 4]: > 800 µM
Compound: CCCCCCCC(=O)O [CA, caprylic acid, reference compound]

- percentage of diazepam induced CD (HSAff; 1 molar equivalent added to the mixture HSAff-diazepam (1:1)): 88.5%
- percentage of diazepam induced CD (HSAff; 2 molar equivalents added to the mixture HSAff-diazepam (1:1)): 60.0%
- percentage of diazepam induced CD (HSAff; 3 molar equivalents added to the mixture HSAff-diazepam (1:1)): 18.6%
- MIC [1, 3]: > 800 µM
- MIC [1, 4]: > 800 µM
Compound: CCCCCCCCCCCCCCCC(=O)O [PA, palmitic acid]

Compound: CCCCCCCCCCCCCC(=O)N[C@@H](Cc1ccccc1)C(=O)N[C@@H](C)C(=O)N[C@@H](CCCNC(=N)N)C(=O)N[C@@H](CCCCN)C(=O)NCC(=O)N[C@@H](C)C(=O)N[C@@H](CC(C)C)C(=O)N[C@@H](CCCNC(=N)N)C(=O)N[C@@H](CCC(N)=O)C(=O)O [RH01] (Myristoyl-FARKGALRQ-OH)
- displacement of diazepam (DZ) from HSAff-DZ (1:1) (HSAff; added at different molar ratios, data not shown): decreased induced CD
- stability towards Pronase degradation, comparison in words (Pronase®): stabilises fat free DBax HSA like HSAff
- Minimum Inhibitory Concentration E. coli [2]: 48 µM
- potency with HSAff compared to the lipopeptide alone or with HSAfa ([2]; from Table 1): twice as potent
- MIC ([1]; NCTC Oxford, 2 h): 24 µM (≈ 30.2 µg/mL)
- MIC ([1]; NCTC Oxford): 12 µM (≈ 15.1 µg/mL)
- potency with HSAff compared to the lipopeptide alone or with HSAfa ([1]; from Table 1): twice as potent

Compound: CCCCCCCCCCCCCCCC(=O)NCCCC[C@H](NC(=O)[C@H](CC(N)=O)NC(=O)[C@H](CCCCN)NC(=O)[C@H](CCC(N)=O)NC(=O)[C@H](CCCNC(=N)N)NC(=O)[C@H](CC(C)C)NC(=O)[C@H](C)NC(=O)CNC(=O)[C@H](CCCCN)NC(=O)[C@H](CCCNC(=N)N)NC(=O)[C@H](C)NC(=O)[C@H](Cc1ccccc1)NC(=O)[C@H](CCCCN)NC(=O)CCCCCCCCCCCCCCC)C(N)=O [RH02] (Palmitoyl-KFARKGALRQKNK(Palmitoyl)-NH2)
- Minimum Inhibitory Concentration E. coli [2]: 62 µM
- Minimum Inhibitory Concentration S. aureus ([1]; NCTC Oxford): 3.7 µM

Compound: CCCCCCCCCCCCCCCC(=O)NCCCC[C@H](NC(=O)[C@H](CC(N)=O)NC(=O)[C@H](CCCCN)NC(=O)[C@H](CCCCNC(=O)CCCCCCCCCCCCCCC)NC(=O)[C@H](CCCNC(=N)N)NC(=O)[C@H](CC(C)C)NC(=O)[C@H](C)NC(=O)CNC(=O)[C@H](CCCCN)NC(=O)[C@H](CCCNC(=N)N)NC(=O)[C@H](C)NC(=O)[C@H](Cc1ccccc1)NC(=O)[C@H](CCCCN)NC(=O)CCCCCCCCCCCCCCC)C(N)=O [RH03] (Palmitoyl-KFARKGALRK(Palmitoyl)KNK(Palmitoyl)-NH2)
- Minimum Inhibitory Concentration E. coli [2]: 441 µM
- Minimum Inhibitory Concentration S. aureus ([1]; NCTC Oxford): 55 µM

Compound: CC(C)C[C@H](NC(=O)[C@H](C)NC(=O)CNC(=O)[C@H](CCCCN)NC(=O)[C@H](CCCNC(=N)N)NC(=O)[C@H](CCCCN)NC(=O)[C@H](Cc1ccccc1)NC(=O)[C@@H](N)CCCCN)C(=O)N[C@@H](CCCNC(=N)N)C(=O)N[C@@H](CCC(N)=O)C(=O)N[C@@H](CCCCN)C(=O)N[C@@H](CC(N)=O)C(=O)N[C@@H](CCCCN)C(N)=O [RH04]
- Minimum Inhibitory Concentration E. coli [2]: 620 µM
- Minimum Inhibitory Concentration S. aureus ([1]; NCTC Oxford): 145 µM

Compound: BSAff: bovine serum albumin essentially fatty acid free and essentially globulin-free
- induced CD of diazepam bound to BSAff, in words (BSAff): characteristic induced CD
